6 molecules from patent US9737493B2, “Compositions and methods for modulating DNMT1 inhibitor activity” (University of Louisville Research Foundation, Inc., priority 2012, dated 2017) can be followed below.

In one data set the test system is Colo-205 xenografts. As to the kind of experiment: Colo-205 xenografts in nude mice. Format: in vivo. Particulars: 25 mg/kg daily for 21 days, i.v.
Data set [1] relates to U937 cells. As to the kind of experiment: Clonogenic cell survival assay. Format: cell-based, human. Particulars: U937, 100 μM BHA, data not shown.
Data set [2] deals with U937 cells. Description: Annexin/PI flow cytometric cell death analysis. Format: cell-based, human. Particulars: U937, 50 and 100 μM BSO, 1 μM XB05, 72 h. On the procedure:
Data shown are representative of three independent experiments. (B) The cell lines indicated were treated with DMSO vehicle or XB05 (1 μM for U937 and Hs27, or 2 μM for A549) for the timepoints indicated. (C) The cell lines indicated were treated with DMSO vehicle, XB05 (1 μM for U937 and Hs27, or 2 μM for A549) or Thapsigargin positive control (2 μM) for 24 h. Densitometry was performed to quantify western blot band intensities for phospho-eIF2α (ser51), total eIF2α and BiP (representative blot shown in FIG. 8D). All values were normalized to DMSO vehicle control. Bar graphs indicate the average band intensity for three independent experiments, +/−the standard error of the mean. Statistical significance for XB05 compared to vehicle is indicated (*p≦0.05 and **p≦0.01).
Flow Cytometric Assays. Analyses were performed using a FACScalibur flow cytometer (BD Biosciences, Mountain View, Calif.) and FlowJo software (Tree Star, Inc., Ashland, Oreg.). Cells were treated as indicated in the figures and in the Brief Description of the Drawings. Cells were harvested by using TrypLE Cell Dissociation Reagent (Life Technologies). […] Cells were then washed twice with PBS, re-suspended at a density of 1×10^6 cells/mL in PBS and analyzed by flow cytometry.

The subject of data set [3] is A549 cells. It is filed as cell-based. The note with it: for effect of antioxidant on XB05-induced cell death: A549, annexin/PI, in combination with XB05, 72 h. On the procedure: Some cells were treated with buthionine sulfoximine (BSO, 200 μM) plus diethyl maleate (DEM, 1 mM) for 3 h as a positive control for GSH depletion. Bar graph indicates mean+/−SEM from three independent experiments. […] Membranes were stripped and reprobed for Ku-70 as a loading control.
Flow Cytometric Assays. Analyses were performed using a FACScalibur flow cytometer (BD Biosciences, Mountain View, Calif.) and FlowJo software (Tree Star, Inc., Ashland, Oreg.). Cells were treated as indicated in the figures and in the Brief Description of the Drawings. Cells were harvested by using TrypLE Cell Dissociation Reagent (Life Technologies). For cell death analyses, cells (adherent and detached cells) were stained with annexin-V-FITC and propidium iodide (PI) using the Apoptosis Detection Kit (BD Biosciences, San Jose, Calif.), according to the manufacturer's instructions. For cell-cycle distribution, cells were fixed, and stained with PI using the Cycle Test Plus kit (Becton Dickinson, Franklin Lakes, N.J.). For detection of γ-H2AX, cells were washed with PBS and fixed in 4% paraformaldehyde in PBS for 10 min at 37° C. […] After washing with PBS, cells were re-suspended in PBS containing 1 μg/mL PI to allow exclusion of non-viable cells. For detection of mitochondrial superoxide, cells were harvested, washed with PBS and stained with 5 μM MitoSOX™ Red (Life Technologies) in warm PBS for 10 min at 37° C. Cells were then washed twice with PBS, re-suspended at a density of 1×10^6 cells/mL in PBS and analyzed by flow cytometry.

The subject of data set [4] is A549 cells. The note with it: A549, in combination with XB05, 10 days.
Description: (C) Clonogenic cell survival assays were conducted in A549 cells treated as indicated and grown in culture for 10 days (see Methods). Bar graph indicates mean values (+/−SEM) for colony growth inhibition from 3 independent experiments. […] Clonogenic Assays. Cells were plated at low density (300 cells/well) in 6-well tissue culture plates, and allowed to adhere overnight. Where indicated, the medium was then replaced with fresh medium containing antioxidants or vehicle (sterile ultrapure H2O). XB05 or vehicle control (DMSO) was then added directly to the medium at the concentrations indicated. After 10 days, cells were fixed with 4% paraformaldehyde in PBS and stained with Accustain Crystal Violet Solution (Sigma Aldrich) washed and air-dried. Colonies were counted using the cell counter feature in the Image J software, available from the National Institute of Health (<<rsbweb.nih.gov/ij/download.html>>).
The test system of data set [5] is A549 non-small cell lung cancer cells. As to the kind of experiment: MTT cell proliferation assay. Format: cell-based, human. Particulars: A549, MTT, in combination with XB05, 72 h. The protocol: (§1) Cell Proliferation Assays. The antiproliferative activity of XB05 was tested using a previously published 3-(4,5-dimethylthiazol-2-yl)-2,5-diphenyltetrazolium bromide (MTT) assay protocol (Girvan et al., “AGRO100 inhibits activation of nuclear factor-kappaB (NF-kappaB) by forming a complex with NF-kappaB essential modulator (NEMO) and nucleolin” Molecular Cancer Therapeutics (2006) Vol. 5, No. 7, pp. 1790-1799). Briefly, cells were seeded in quadruplicate wells in 96-well plates and allowed to adhere overnight. […] Plates were incubated with XB05 for 72 h, during which the cell culture medium was not changed. Cell viability was determined and the background corresponding to medium alone (no cells) was subtracted. Data were analyzed as described in the Brief Description of the Drawings.
(§2) XB05 has Cancer-Selective Antiproliferative Activity. XB05 was tested to determine its antiproliferative activity in a variety of human cell lines that are derived from malignant tissues or from non-malignant (immortalized but not transformed) cells and listed in FIG. 1B. As described in Materials and Methods, cells were treated with varying concentrations of XB05 for 72 h and evaluated using the MTT cell proliferation assay.
(In general: Tetrazolium assays rely on reduction of a dye to a coloured formazan, in cell work by metabolically active cells.)

Data set [6] deals with U937 myeloid leukemia cells. As to the kind of experiment: MTT cell proliferation assay. It is filed as cell-based, human. Particulars: U937, MTT and flow cytometric assays, in combination with XB05, 72 h. On the procedure:
as §1, §2

A further data set deals with MDA-MB-231 cells. As to the kind of experiment: Clonogenic cell survival assay. Format: cell-based, human. Particulars: MDA-MB-231, NAC and GSH 5 mM, AA 100 μM, 10 days.

Each structure is given as a SMILES string.

Description for MDA-MB-231 cells: Clonogenic cell survival assays were conducted with MDA-MB-231 cells treated as indicated and grown in culture for 10 days (see Methods). Clonogenic Assays. Cells were plated at low density (300 cells/well) in 6-well tissue culture plates, and allowed to adhere overnight. Where indicated, the medium was then replaced with fresh medium containing antioxidants or vehicle (sterile ultrapure H2O). XB05 or vehicle control (DMSO) was then added directly to the medium at the concentrations indicated. After 10 days, cells were fixed with 4% paraformaldehyde in PBS and stained with Accustain Crystal Violet Solution (Sigma Aldrich) washed and air-dried. Colonies were counted using the cell counter feature in the Image J software, available from the National Institute of Health (<<rsbweb.nih.gov/ij/download.html>>).

For the molecule `CC/C=C\CCC(O)C#CC(F)(F)Br` (centres unmarked) [LD-01-072], in the data set on Colo-205 xenografts, the “in vivo antitumor efficacy” value is “in vivo antitumor efficacy” and the “non-specific toxicity judged by body weight” value is reported as “no evidence of any severe non-specific toxicities”.
As for `COc1ccc(O)c(C(C)(C)C)c1` [BHA, butylated hydroxyanisole], in the data set on U937 cells [1], the “protection from XB05 activity” value is “no protective effect”.
In the case of `CCCCS(=N)(=O)CCC(N)C(=O)O` (centres unmarked) [BSO, buthionine sulfoximine], the “cytotoxicity of BSO plus XB05 compared to XB05 alone” value in the data set on U937 cells [2] was “enhanced cytotoxicity compared to XB05 treatment alone”; in the data set on A549 cells [3] (A549, 50 and 100 μM BSO, 2 μM XB05, 72 h), “enhanced cytotoxicity compared to XB05 treatment alone”.
Regarding `O=C1O[C@H]([C@@H](O)CO)C(O)=C1O` [AA, L-ascorbic acid], the “effect of antioxidant on XB05-induced cell death” value in the data set with A549 cells [3] is listed as “slightly enhanced the pro-apoptotic activity of XB05”. The “effect of antioxidant on XB05 effect on clonogenic survival” value (“effect of antioxidant on XB05 effect” below) with A549 cells [4] is “no protective effect”. For the same molecule, in data set [5], the “effect of antioxidant on antiproliferative effects of XB05” value (from here on “effect of antioxidant … of XB05”) is “no effect”. For the same molecule, the “protection from antiproliferative and cytotoxic effects of XB05” value in data set [6] was “not”. Also, the “protection from cytotoxic effects of XB05” value with MDA-MB-231 cells is listed as “not”.
In the case of `N[C@@H](CCC(=O)N[C@@H](CS)C(=O)NCC(=O)O)C(=O)O` [GSH, reduced glutathione], in the data set on A549 cells [3], the “effect of antioxidant on XB05-induced cell death” value is “protected cells from XB05-induced apoptosis and nonapoptotic cell death”. Also, in the data set with A549 cells [4], the “effect of antioxidant on XB05 effect” value is “abrogated the effect of XB05 on clonogenic survival”. Further, in data set [5], the “effect of antioxidant … of XB05” value is “diminish the antiproliferative effects of XB05”. Also, the “protection from antiproliferative and cytotoxic effects of XB05” value in data set [6] was “protect these cells from the antiproliferative and cytotoxic effects of XB05”. For the same molecule, the “protection from cytotoxic effects of XB05” value with MDA-MB-231 cells is given as “protect these cells from the cytotoxic effects of XB05”.
For `CC(=O)N[C@@H](CS)C(=O)O` [NAC, N-acetyl cysteine], in the data set with A549 cells [3], the “effect of antioxidant on XB05-induced cell death” value was “protected cells from XB05-induced apoptosis and nonapoptotic cell death”. Further, the “effect of antioxidant on XB05 effect” value in the data set on A549 cells [4] is “abrogated the effect of XB05 on clonogenic survival”. In addition, the “effect of antioxidant … of XB05” value in data set [5] is given as “diminish the antiproliferative effects of XB05”. Besides, the “protection from antiproliferative and cytotoxic effects of XB05” value in data set [6] was “protect these cells from the antiproliferative and cytotoxic effects of XB05”. The “protection from cytotoxic effects of XB05” value in the data set on MDA-MB-231 cells is “protect these cells from the cytotoxic effects of XB05”.
